The results in this text go back to US20160193240A1, “Ulmoside-A: Useful For Prevention Or Cure Of Metabolic Diseases” (COUNCIL OF SCIENTIFIC & INDUSTRIAL RESEARCH, priority 2013, published 2016).

The test system of data set [1] is Mouse stromal vascular fractions (SVF). Kind of data set: Brown adipose marker expression and mitochondrial copy number in mouse stromal vascular fractions. In kind it is cell-based. The procedure:
B. Mouse stromal vascular fractions (SVF) isolated from epididymal fat pads using collagenase digestion was differentiated in presence or absence of 10 nM ULMA and were analyzed for indicated mRNA expressions. **p<0.01, ***p<0.001 as determined by two tailed unpaired student's t-test.
(§1) C. Cells from identical set of experiments as described in FIGS. 5A and 5B or human SVFs prepared by collagenase digestions were analyzed by western blot analysis for determination of UCP-1, UCP-2 and PGC-1α protein level. Beta-actin was used as a loading control. Data is representative of three independent experiments.
D. Mouse SVFs differentiated in presence or absence of 10 nM ULMA were evaluated for mitochondrial copy number. Total cellular DNA was isolated from these cells by standard procedure (using a genomic DNA isolation kit; Macherey Nagel; according to manufacturer's instructions) and the mitochondrial DNA content was measured by QRT-PCR based measurement of mitochondrial cytochrome b (Cytb) by qPCR and normalized with genomic glycerol three phosphate dehydrogenase DNA level. Data represent mean±SEM from three independent experiments performed in triplicates. **p<0.01 as determined by two tailed unpaired student's t-test.
Mouse stromal vascular fractions (SVF) from epididymal fat pad were prepared using standard collagenase digestion method. Human SVF was prepared from human lipoaspirates (subcutaneous) collected from an obese individual undergoing liposuction following approval of Institutional Ethical Committee. To isolate SVFs, epidymal fat pads tissue or lipoaspirates were washed 6× in PBS and then were dispensed in tissue culture flasks. 0.2% sterile collagenase (Sigma) solution containing 1× antibiotic-antimycotic (Invitrogen) was then added to the adipose and the flasks were shaken vigorously for 10 seconds. The flasks were then incubated at 37° C. on a shaker for 2 hours with manual shaking of the flasks for 5-10 seconds every 15 min. After completion of digestion, FBS was added to the final concentration of 10% to the flasks, mixed and the collagenase digested tissue were then dispensed in 50 ml conical tubes and were centrifuged at 400 g for 10 min at room temp. The supernatant was discarded and the pellets constituting the SVFs were then reconstituted in culture medium (DMEM/F12 50:50+10% FBS) and plated in T25 tissue culture flasks and cultured for further experiments.
The SVFs were differentiated as for 3T3L-1 (described above), in presence of ULMA or vehicle (10 d for mouse SVF and 21 d for human SVF), following which they were lysed and used for QPCR or western blot analysis.
(§2) For western blot-based determination of UCP-1, UCP-2 and PGC-1α protein level, cells from an identical set of experiment were lysed and western blotted with UCP-1, UCP-2 (Abcam), PGC-1α(Calbiochem), or beta-actin (cell signaling technology; used as a loading control) as described above.

Data set [2] concerns wistar rats. Kind of data set: Dexamethasone mediated cardiac hypertrophy in rats (heart weight/body weight ratio). In kind it is in vivo, rat. The procedure:
Following 15 d treatment with indicated compounds or vehicle, animals were euthanized and heart weight and body weight were measured and heart weight/body weight ratio were calculated and plotted. Data represents mean+/−SEM. N=6. *p<0.05 as determined by student's t-test.
Blood was collected from cardiac punctures.
Therefore, the heart weight/body weight ratio was measured in these rats (described in Example 6A-C).

Data set [3] deals with 3T3L-1 mouse pre-adipocyte cells. Kind of data set: Brown adipose marker expression in differentiating 3T3L-1 preadipocytes. In kind it is cell-based. The procedure: A. 3T3L-1 mouse preadipocyte cells in 6 well plates were allowed to reach full confluence. Two days following confluence (designated as day 0), the growth medium was replaced with differentiation medium (DM). After two days of incubation in DM, this medium was replaced with insulin medium (Ins) and the cells were incubated in Ins for 2 days and then the insulin medium was replaced with growth medium (GM) and the cells were cultured for a total of 10 days (starting from day 0). The cells were treated with vehicle (0.1% DMSO) or ULMA (10 nM in 0.1% DMSO) on day 0 and the total treatment duration was 10 days. In all cases, medium was replaced with fresh corresponding medium every day containing vehicle (0.1% DMSO) or 10 nM ULMA (in DMSO; final DMSO concentration in all wells 0.1% vol/vol). After a total of 10 days from day 0, cells were washed in cold PBS and RNA was extracted using trizol reagent using standard procedure following which cDNA synthesis was done and UCP-1, UCP-2, PGC-1α and PRDM16 expression were determined using QRT-PCR, normalized with Beta-actin mRNA and plotted as fold induction over vehicle treated control. Data is mean±SEM of three independent experiments performed in triplicates. **p<0.01 as determined by two tailed unpaired student's t-test.
as §1
Adiponectin has previously been described to enhance mitochondrial function in adipose tissues and induces its thermogenic potential and therefore causes a conversion towards brown adipose phenotype characterized by an increase in UCPs, in particular UCP-1 (I. B. Bauche, S. A. E. Mkadem, A-M. Pottier, M. Senou, M-C. Many, R. Rersohazy, L. Penicaud, N. Maeda; T. Funahashi, S. M. Brichard. Endocrinology 148(4):1539-1549. 2007). Therefore, the ability of ULMA to induce UCP-1 and 2 in different stages of adipocyte differentiation was checked. We also checked other brown adipose markers such as PGC-1α and PR domain containing 16 (PRDM16). 3T3L-1 mouse pre-adipocyte cells (ATCC, CL-173) maintained in growth medium (DMEM with 4.5 mg/ml glucose, 4.0 mM glutamine, 1 mM sodium pyruvate, 10% FBS and 1× antibiotic-antimycotic solution (all reagents from invitrogen)) were plated in 6 well plates and allowed to reach full confluence. […] After two days of incubation in differentiation medium, this medium was replaced with insulin medium (DMEM, 10% FBS, plus 1.5 μg/ml insulin) and the cells were incubated in insulin medium for 2 days and then the insulin medium was replaced with growth medium and the cells were then cultured for total of 10 days (from day 0). For ULMA treatment, the cells were treated on day 0 (the day on which differentiation medium was added), and the treatment was continued for a total of 10 days. In all cases, medium was replaced with fresh medium containing vehicle (0.1% DMSO) or 10 nM ULMA every day. After 10 days from day 0, cells were washed in cold PBS and RNA was extracted using trizol reagent using standard procedure following which cDNA synthesis was done and transcript expression was determined using QRT-PCR as described above.
as §2

Where [4] appears, read: differentiated in presence of ULMA, 10 d.
[5] abbreviates: 10 nM, 10 days of differentiation.
[6] abbreviates: differentiated in presence of ULMA, 10 days.

For the molecule `O=C1c2c(cc(O)c([C@@H]3O[C@H](CO)[C@@H](O)[C@H](O)[C@H]3O)c2O)O[C@@H](c2ccc(O)c(O)c2)[C@@H]1O` [ULMA, (2S,3S)-(+)-3′,4′,5,7-tetrahydroxydihydroflavonol-6-C-β-D-glucopyranoside], in data set [1] (10 nM, 10 d differentiation), the “PGC-1α mRNA level” value is “significant increase”, the “PRDM16 mRNA level” value is on record as “significant increase”, the “UCP-1 mRNA level” value is “significant increase” and the “UCP-2 mRNA level” value is “significant increase”. The “mitochondrial DNA copy number (cytb level)” value in data set [1] (10 nM, differentiated mouse SVFs) is listed as “significantly higher”. Moreover, in data set [1] (setting [4]), the PGC-1α protein level result was “elevated” and the UCPs protein level entry is reported as “elevated”. Also, in data set [2] (Dex + ULMA), the “Dex-caused increase of heart/body weight ratio” value is on record as “significantly alleviated this increase”. For the same molecule, the “heart weight/body weight ratio in control animals” value in data set [2] (ULMA alone) was “did not change”. In data set [3] (setting [5]), the “PGC-1α mRNA level” value is reported as “significant increase”, the “PRDM16 mRNA level” value was “significant increase”, the “UCP-1 mRNA level” value was “significant increase” and the “UCP-2 mRNA level” value is given as “significant increase”. In data set [3] (setting [6]), the PGC-1α protein level entry was “elevated” and the UCPs protein level result is “elevated”.
